# Data as given in ChEMBL document CHEMBL1157947, “Antineoplastic Agents. 554. The manitoba bacterium Streptomyces sp” (2006).
# What was measured:
# Type in all cases: functional
# NCI-H460 = assay: Growth inhibition of human NCI-H460 cells
# P388 = assay: Growth inhibition of mouse P388 cells
# MCF7 = assay: Growth inhibition of human MCF7 cells
# BXPC-3 = assay: Growth inhibition of human BXPC3 cells
# SF-268 = assay: Growth inhibition of human SF268 cells
# DU-145 = assay: Growth inhibition of human DU145 cells
# KM-20L2 = assay: Growth inhibition of human KM20L2 cells
# [1] = system: Stenotrophomonas maltophilia; assay: Antibacterial activity against Stenotrophomonas maltophilia by broth microdilution method
# Streptococcus pneumoniae = assay: Antibacterial activity against Streptococcus pneumoniae ATCC 6303 by broth microdilution method
# Micrococcus luteus = assay: Antibacterial activity against Micrococcus luteus by broth microdilution method
# Escherichia coli = assay: Antibacterial activity against sEscherichia coli by broth microdilution method
# Staphylococcus aureus = assay: Antibacterial activity against Staphylococcus aureus by broth microdilution method
# Cryptococcus neoformans = assay: […] activity against Cryptococcus neoformans by broth microdilution method
# Enterococcus faecalis = assay: Antibacterial activity against sEnterococcus faecalis by broth microdilution method
# Candida albicans = assay: Antifungal activity against Candida albicans by broth microdilution method
# Enterobacter cloacae = assay: Antibacterial activity against sEnterobacter cloacae by broth microdilution method
# Neisseria gonorrhoeae = assay: Antibacterial activity against Neisseria gonorrhoeae ATCC 49226 by broth microdilution method
Structure (SMILES),GI50 (NCI-H460),GI50 (P388),GI50 (MCF7),GI50 (BXPC-3),GI50 (SF-268),GI50 (DU-145),GI50 (KM-20L2),MIC [1],MIC (Streptococcus pneumoniae),MIC (Micrococcus luteus),MIC (Escherichia coli),MIC (Staphylococcus aureus),MIC (Cryptococcus neoformans),MIC (Enterococcus faecalis),MIC (Candida albicans),MIC (Enterobacter cloacae),MIC (Neisseria gonorrhoeae)
O=C(CO)c1c[nH]c2ccccc12,0.17 µg/mL,2.8 µg/mL,0.82 µg/mL,0.31 µg/mL,1.8 µg/mL,0.21 µg/mL,1.2 µg/mL,–,–,–,–,–,–,–,–,–,–
Cc1cc(=O)n(C)c2c1C(=O)c1c(C)cc(=O)n(C)c1C2=O [DIAZAANTHRAQUINONE],1.2 µg/mL,1.4 µg/mL,0.49 µg/mL,0.54 µg/mL,1.3 µg/mL,1 µg/mL,0.32 µg/mL,> 64 µg/mL,16 µg/mL,> 64 µg/mL,> 64 µg/mL,> 64 µg/mL,> 64 µg/mL,> 64 µg/mL,> 64 µg/mL,> 64 µg/mL,4 µg/mL
